Experimental data: patent US20240238241A1, “PHARMACEUTICAL COMPOSITION FOR TREATMENT OF PANCREATIC CANCER AND BILE DUCT CANCER” (JAPAN SCIENCE AND TECHNOLOGY AGENCY, priority 2021, published 2024)

How the values were obtained:
ZIC5 protein [1] = target: T1, ZIC5 protein (Homo sapiens, UniProt Q96T25); assay: secondary screening: ZIC5 protein quantified by anti-ZIC5 immunostaining and imaging cytometer in A375 cells overexpressing ZIC5; conditions: A-375, read-out: ZIC5 Protein Amount (Relative Value);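 note: compounds added at 0.1, 1, 5 or 10 µM to A375 cells overexpressing ZIC5 without a fusion tag, cells fixed the next day, ND means cells died before measurement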
T1 sequence (Q96T25 1-639): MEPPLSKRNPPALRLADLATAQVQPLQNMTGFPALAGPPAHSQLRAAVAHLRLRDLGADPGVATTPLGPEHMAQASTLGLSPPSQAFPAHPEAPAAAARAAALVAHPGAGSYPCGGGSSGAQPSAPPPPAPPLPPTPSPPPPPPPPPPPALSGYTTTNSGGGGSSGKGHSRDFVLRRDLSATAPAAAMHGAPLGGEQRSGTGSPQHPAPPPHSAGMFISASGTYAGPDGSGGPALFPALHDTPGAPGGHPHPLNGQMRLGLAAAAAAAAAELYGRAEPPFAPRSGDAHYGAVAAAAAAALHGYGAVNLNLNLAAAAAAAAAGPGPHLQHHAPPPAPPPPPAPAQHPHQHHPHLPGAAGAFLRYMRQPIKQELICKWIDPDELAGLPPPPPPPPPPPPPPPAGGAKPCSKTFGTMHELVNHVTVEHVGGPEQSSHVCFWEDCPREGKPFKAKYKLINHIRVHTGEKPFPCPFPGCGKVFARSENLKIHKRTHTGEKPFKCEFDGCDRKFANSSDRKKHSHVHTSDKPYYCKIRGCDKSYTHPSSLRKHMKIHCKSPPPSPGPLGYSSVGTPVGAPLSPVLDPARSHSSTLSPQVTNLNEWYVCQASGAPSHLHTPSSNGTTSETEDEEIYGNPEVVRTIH
Description: In the secondary screening, A375 cells overexpressing the ZIC5 protein (without a fusion protein) were subjected to the addition of the primary hit compound to a final concentration of 0.1 μM, 1 μM, 5 μM, or 10 μM and cultured, and then the cells were fixed on the next day. The fixed cells were subjected to staining by using an anti-ZIC5 antibody (clone: GTX104840) and an Alexa Fluor 568-anti-rabbit IgG antibody as a secondary antibody, and the amount of the ZIC5 protein was quantified using the imaging cytometer.

[2] = system: vemurafenib-resistant lines derived from human melanoma (A375vemR line, HT144vemR line); assay: apoptosis induction rate after compound treatment; type: cell-based; design: dose or concentration left out as unconfirmed; conditions: 48 hours
Description: (§1) The apoptosis induction rate (%) was measured as follows. First, a CellEvent Caspase-3/7 Green Detection Reagent (manufactured by Invitrogen Corporation) and Hoechst 33342 were added to each kind of cell, followed by incubation for 40 minutes. Next, the staining state of the cells after incubation was analyzed by using a DAPI filter and an FITC filter of an imaging cytometer “IN Cell Analyzer 2000” (manufactured by GE Healthcare). The proportion (%) of Caspase-3/7 active cells (CellEvent Caspase-3/7 Green Detection Reagent positive cells) with respect to all DAPI-stained cells (DAPI positive cells) was determined by “IN Cell Analyzer Workstation 3.7” (manufactured by GE Healthcare), and this was defined as the apoptosis induction rate (%). The statistical difference was determined according to the Tukey's multiple comparison test (n=3, *p<0.05, **p<0.01, ***p<0.001).
(§2) A total of 7 kinds of cells of 2 kinds of vemurafenib-resistant lines derived from human melanoma (an A375vemR line and an HT144vemR line), 2 kinds of ZIC5 high-expressing melanoma cell lines (an A375 line and an HT144 line), 2 kinds of ZIC5 low-expressing melanoma cell lines (a Colo829 line and an SKmel28 line), and a ZIC5 non-expressing normal human melanocyte cell (NHM) were treated with the compound (T-1) or compound (T-2), and regarding the cells that had been subsequently cultured for 48 hours, the apoptosis induction rate (%) was determined in the same manner as in Example 1. […]

[3] = system: ZIC5 non-expressing normal human melanocyte cell (NHM); assay: apoptosis induction rate after compound treatment; type: cell-based; design: dose or concentration left out as unconfirmed; conditions: 48 hours
Description: as §1, §2

[4] = system: ZIC5 low-expressing melanoma cell lines (Colo829 line, SKmel28 line); assay: apoptosis induction rate after compound treatment; type: cell-based, human; design: dose or concentration left out as unconfirmed; conditions: 48 hours
Description: as §1, §2

[5] = system: ZIC5 high-expressing melanoma cell lines (A375 line, HT144 line); assay: apoptosis induction rate after compound treatment; type: cell-based, human; design: dose or concentration left out as unconfirmed; conditions: 48 hours
Description: as §1, §2

A375 cells = assay: relative cell number after compound then BRAF inhibitor vemurafenib; type: cell-based, human; conditions: 0.5 μM T-1 or 50 nM T-2 for 48 hours, then vemurafenib 0.1 μM for 72 hours
Description: Specifically, 0.5 μM of the compound (T-1) or 50 nM of the compound (T-2) was added to A375 cells, culturing was carried out for 48 hours, and then vemurafenib was added thereto a concentration of 0.1 μM, and culturing was further carried out for 72 hours. After the culturing, cell nuclei were stained with Hoechst to count the number of cells. The number of cells of the A375 cells cultured without adding any compound was set to 1, and the relative cell number of each kind of cell was determined.

ZIC5 protein [6] = target: T1, ZIC5 protein; assay: Western blotting of ZIC5 protein/GAPDH in A375 cells (none overexpressed); type: cell-based; conditions: 0, 0.1, 0.5 or 1 μM; 48 hours
Description: Regarding the compound (T-1) and the compound (T-2), the effect on the amount of the intracellular ZIC5 protein was investigated according to the Western blotting method. Specifically, A375 cells (none was overexpressed therein) were subjected to the addition of the compound (T-1) or the compound (T-2) so that the concentration thereof was 0, 0.1, 0.5, or 1 μM, and the cells were cultured for 48 hours. The cells after being cultured were recovered, and Western blotting was carried out using an anti-ZIC5 antibody and an anti-GAPDH antibody. The amount of each protein was quantified from a density of a band in the Western blotting image.

A375 melanoma cells = assay: relative cell number in cells transfected with ZIC5 expression plasmid (Z5) or empty vector (C); type: cell-based, human; conditions: 0.1 or 0.5 μM T-1, 10 nM T-2; 4 days; Z5 versus empty vector
Description: Specifically, a ZIC5 expression plasmid (Z5) or an empty vector (C) was introduced into A375 melanoma cells by transfection, and cells into which each of the plasmids had been introduced were selected. Next, these cells were subjected to the addition of 0.1 μM or 0.5 μM of the compound (T-1) or 10 nM of the compound (T-2) and cultured for 4 days. After the culturing, cell nuclei were stained with Hoechst, and the number of cells was counted with an imaging cytometer “IN Cell Analyzer 2000”. The number of cells, into which an empty vector had been introduced and which had not been subjected to the compound treatment, was set to 1, and the relative cell number of each kind of cell was determined. […] In the figure, “C” is for cells into which the empty vector has been introduced, and “Z5” is for cells into which the ZIC5 expression plasmid has been introduced.

[7] = system: pancreatic cancer cell lines (AsPC-1, Panc-1, MiaPaca-2) and bile duct cancer cell line (RBE); assay: apoptosis induction rate with gemcitabine after siRNA transfection; type: cell-based; conditions: gemcitabine 0.1 μM, 48 hours
Description: as §1
Next, each kind of cell was introduced by transfection with siNeg and siZIC5 listed in Table 2 and cultured for 24 hours. Then, gemcitabine, which is a standard therapeutic drug for pancreatic cancer and bile duct cancer, was added thereto, the culture was further carried out for 48 hours, and then the apoptosis induction rate (%) was investigated.

SMILES | remaining activity at 0.1 µM (ZIC5 protein [1]) [%] | remaining activity at 1 µM (ZIC5 protein [1]) [%] | remaining activity at 5 µM (ZIC5 protein [1]) [%] | other results
C[C@@H]1O[C@@H](O[C@H]2C[C@@H](O)[C@]3(CO)[C@H]4[C@H](O)C[C@]5(C)[C@@H](C6=CC(=O)OC6)CC[C@]5(O)[C@@H]4CC[C@]3(O)C2)[C@H](O)[C@H](O)[C@H]1O [Compound T-11] | 90.6 | 67.8 | – | –
C=C1C(=O)O[C@H]2C1CC/C(C)=C\CC[C@@]1(C)O[C@H]21 (stereo partly drawn) [Compound T-3] | 89.8 | 98.2 | 55.3 | –
CC(=O)O[C@H]1[C@H]2O[C@@]23[C@@H]2CC[C@]4(O)C[C@@H](O)CC[C@]4(C)[C@H]2CC[C@]3(C)[C@H]1c1ccc(=O)oc1 [Compound T-8] | 88.2 | 90.8 | 70.5 | remaining activity at 10 µM (ZIC5 protein [1]): 44.7%
O=C1C=C2C(=CCOC2O)O1 (stereo not drawn) [Compound T-1] | 83.4 | 76.7 | – | apoptosis induction [2]: induced apoptosis; apoptosis induction [3]: did not induce apoptosis; apoptosis induction ([4]; both ZIC5 low-expressing lines): did not induce apoptosis; apoptosis induction [5]: induced apoptosis; relative cell number in combination with vemurafenib (A375 cells): synergistically reduce the number of cells; relative amount of the ZIC5 protein ([amount of ZIC5 protein]/[amount of GAPDH protein]) (ZIC5 protein [6]): reduced depending on the concentrations; apoptosis induction and suppression of cancer cell proliferation in ZIC5-overexpressing cells (Z5) (A375 melanoma cells): restored
CC(=O)O[C@H]1C[C@]2(O)[C@@H]3CC[C@@H]4C[C@@H](O)CC[C@]4(C)[C@H]3CC[C@]2(C)[C@H]1c1ccc(=O)oc1 [Compound T-7] | 103 | 76.4 | – | –
CCCCCCCCCCCCC/C=C/[C@H](O)[C@H](N)CO [Compound T-5] | 108 | 118 | 62.6 | –
Nc1ccn([C@@H]2O[C@H](CO)[C@@H](O)C2(F)F)c(=O)n1 [gemcitabine] | – | – | – | apoptosis induction [7]: apoptosis was induced
C=C(C)[C@H]1O[C@H]2CC[C@@]3(C)[C@@](O)(CC[C@H]4C5OC(C)(C)[C@H]6C[C@@H]7C(=C)Cc8c(Cl)cc9[nH]c(c5c9c8[C@@]76O)[C@@]43C)[C@]23O[C@@H]3[C@H]1O (stereo partly drawn) [Compound T-4] | 111 | 96 | 75.4 | –
C[C@@H]1O[C@@H](O[C@@H]2C=C3CC[C@@H]4[C@H](CC[C@]5(C)[C@@H](c6ccc(=O)oc6)CC[C@]45O)[C@@]3(C)CC2)[C@H](O)[C@H](O)[C@H]1O [Compound T-10] | 70.2 | 42.1 | 50 | –
C[C@@H]1O[C@@H](O[C@H]2CC[C@]3(C=O)[C@H]4CC[C@]5(C)[C@@H](c6ccc(=O)oc6)CC[C@]5(O)[C@@H]4CC[C@]3(O)C2)[C@H](O)[C@H](O)[C@H]1O[C@@H]1O[C@H](CO)[C@@H](O)[C@H](O)[C@H]1O [Compound T-12] | 76.8 | 72.5 | 57.1 | –
COc1cc(O)c2c(c1)/C=C/C[C@H](O)[C@H](O)C(=O)/C=C\C[C@H](C)OC2=O [Compound T-2] | 89.6 | 83.1 | 72.8 | remaining activity at 10 µM (ZIC5 protein [1]): 70.8%; apoptosis induction [2]: induced apoptosis; apoptosis induction [3]: did not induce apoptosis; apoptosis induction ([4]; Colo829 line): induced apoptosis; apoptosis induction ([4]; SKmel28 line): did not induce apoptosis; apoptosis induction [5]: induced apoptosis; relative cell number in combination with vemurafenib (A375 cells): synergistically reduce the number of cells; relative amount of the ZIC5 protein ([amount of ZIC5 protein]/[amount of GAPDH protein]) (ZIC5 protein [6]): reduced depending on the concentrations; apoptosis induction and suppression of cancer cell proliferation in ZIC5-overexpressing cells (Z5) (A375 melanoma cells): restored
